Results on one compound are retold here after PMC6489322, “Biochemical characterization of recombinant Avihepatovirus 3C protease and its localization” (Virology Journal, 2019).

The target in this assay is T1, DHAV 3C protease (avihepatovirus A1, UniProt Q076B4).
T1 construct: mature 3C cut from the genome polyprotein (aa 1614-1794, 181 aa); N-terminal His6 tag, pET32a (NdeI/HindIII), E. coli BL21, Ni-NTA; tag removal not described
The assay is described as follows: FRET peptide cleavage assay, inhibition. The conditions noted are these: 5 uM protease, 20 uM Dabcyl-ASFMNQSKVRRFE-Edans; inhibitor at 50 and 100 uM; cleavage buffer (assay optimum pH 7.0, 150 mM NaCl, 37 °C). It is filed as biochemical.

As for `CCOC(=O)/C=C/[C@H](C[C@@H]1CCNC1=O)NC(=O)[C@@H](CC(=O)[C@@H](NC(=O)c1cc(C)on1)C(C)C)Cc1ccc(F)cc1` [AG7088, Rupintrivir], the “FRET peptide cleavage assay, inhibition” value is listed as “The results showed that AG7088 exhibited inhibitory activity against the DHAV 3C protease”.
